Consider 31 compounds from US9187455B2, “Substituted pyridazines as PDE10A inhibitors” (Hoffmann-La Roche Inc., priority 2009, dated 2015).

In the test the target is T1, PDE10A2 (Homo sapiens, UniProt Q9Y233).
T1 construct: residues serine 449 to aspartate 789; His6 (H6) with Gateway linker and thrombin cleavage site (N, cleaved yes); made in house; host or cells: E. coli BL21(DE3) pLysS
T1 sequence (Q9Y233 715-1055): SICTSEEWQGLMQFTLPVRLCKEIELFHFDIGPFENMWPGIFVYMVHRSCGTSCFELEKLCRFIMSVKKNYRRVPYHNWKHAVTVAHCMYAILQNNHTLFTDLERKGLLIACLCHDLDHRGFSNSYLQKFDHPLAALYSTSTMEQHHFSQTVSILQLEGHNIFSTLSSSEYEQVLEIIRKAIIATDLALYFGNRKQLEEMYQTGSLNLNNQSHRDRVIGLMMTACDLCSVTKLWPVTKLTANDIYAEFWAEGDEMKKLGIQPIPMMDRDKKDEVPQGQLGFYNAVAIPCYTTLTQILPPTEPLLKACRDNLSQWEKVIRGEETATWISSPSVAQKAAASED
Description: PDE10A2 Scintillation Proximity Assay (SPA), [3H]-cGMP hydrolysis. As to conditions: catalytic domain of human PDE10A2 (S449-D789), 0.25 nM enzyme, 50 nM cGMP + 50 nM [3H]-cGMP, 30 minutes at room temperature; read-out: PDE10A2 inhibition IC50. Type of test: biochemical. The method, then: The following tests were carried out in order to determine the activity of the compounds of the present invention. PDE10 activity of the compounds of the present invention is determined using a Scintillation Proximity Assay (SPA)-based method similar to the one previously described (Fawcett, L. et al., ProcNatl Acad Sci USA (2000) 97(7):3702-3707).
PDE10A1 and PDE10A2 are two splice variants of PDE10A. There are these 2 splice variants known, which differ in the N-terminal part of the protein. The catalytic domains of PDE10A1 and PDE10A2 are identical. The assay for PDE10A2 described below is therefore also representative for PDE10A1 and also for PDE10A in general.
The PDE10A2 assay was performed in a two step procedure in 96-well micro titer plates. The reaction mixture of 80 μl contained 20 mM HEPES/10 mM MgCl2/[…] (pH 7.5), 50 nM cGMP (Sigma) and 50 nM [^3H]-cGMP (GE Healthcare), 0.25 nM PDE10A2 with or without a specific test compound. A range of concentrations of the potential inhibitor was used to generate data for calculating the concentration of inhibitor resulting in 50% of the effect (e.g. IC50, the concentration of the competitor inhibiting PDE10A2 activity 50%). Non-specific activity was tested without the enzyme. The reaction was initiated by addition of the substrate solution (cGMP and [^3H]-cGMP) and allowed to progress for 30 minutes at room temperature. The reaction was terminated by transferring 50 μl of the reaction mixture into an OptiPlate (Perkin Elmer) containing 25 μl of YSi-SPA scintillation beads (GE Healthcare) in 18 mM zinc sulphate solution (stop reagent). After 1 h under shaking, the plate was centrifuged one minute at 1000 rpm to allow beads to settle. Afterwards, radioactive counts were measured on a Perkin Elmer TopCount Scintillation plate reader.
The catalytic domain of human PDE10A2, residues serine 449 to aspartate 789, was amplified by PCR using cDNA (Origene) and the oligonucleotides 5′-GGGGACAAGTTTGT […]-3′ (with AttB1 recombination site in bold and thrombin protease cleavage site in italics) and 5′-[…]-3′ (with AttB2 recombination site in bold) which conferred Gateway recombination sites. The PCR product was used in a BP recombination reaction with pDONR221 to generate pENTR Thm-PDE10A2(S449-D789) which was DNA sequence verified and then used in an LR recombination reaction with a Gateway modified version of pET11a. The resulting expression vector, placT7.2H6-(gwl)-Thm-PDE10A2(S449-D789) was DNA sequence confirmed and transformed into E. coli strain BL21(DE3) pLysS and recombinant protein was produced in TB medium at 20° C. by induction to a final IPTG concentration of 0.5 mM at an optical density of 1.0 at 600 nm for 20 hours. About 30% of the protein was in the soluble fraction of the cell homogenate. The protein was purified using sequential chromatography on Ni-NTA and HiTrapQ/HiTrapS. After thrombin digest at room temperature a HiTrapChelating/HiTrap Benzamindin chromatography removed impurities, uncleaved protein and thrombin. Final purification of PDE10A2(S449-D789) was performed on a Superdex 75 size exclusion chromatography equilibrated with 25 mM HEPES pH 8.4, 0.15 M NaCl. The yield of pure protein was 2 mg/liter of culture volume is relatively low. The purity of the protein was >95%, monomeric and monodisperse as shown by SDS-PAGE, HPLC and analytical ultracentrifugation.
On the technique in general: SPA uses beads or plates that emit light when radiolabelled molecules are held near them.
In general, IC50 refers to the concentration needed to halve the response being measured. Consider `O=c1ccn(-c2ccncc2)nc1-c1ccnn1-c1cccc(Cl)n1` [Example 1, 3-[2-(6-Chloro-pyridin-2-yl)-2H-pyrazol-3-yl]-1-pyridin-4-yl-1H-pyridazin-4-one], for which the IC50 is 8100 nM.

Regarding `N#Cc1cccc(-n2nccc2-c2nn(-c3ccncc3)ccc2=O)c1` [Example 3, 3-[5-(4-Oxo-1-pyridin-4-yl-1,4-dihydro-pyridazin-3-yl)-pyrazol-1-yl]-benzonitrile], the IC50 was 319 nM.

As to `O=c1ccn(-c2ccncc2)nc1-c1ccnn1-c1ccccc1F` [Example 4, 3-[2-(2-Fluoro-phenyl)-2H-pyrazol-3-yl]-1-pyridin-4-yl-1H-pyridazin-4-one], the IC50 amounted to 115 nM.

As to `O=C(O)c1cccc(-n2nccc2-c2nn(-c3ccncc3)ccc2=O)c1` [Example 5, 3-[5-(4-Oxo-1-pyridin-4-yl-1,4-dihydro-pyridazin-3-yl)-pyrazol-1-yl]-benzoic acid], the IC50 came to 899 nM.

Turning to `O=c1ccn(-c2ccncc2)nc1-c1ccnn1-c1ccc(Cl)cc1` [Example 6, 3-[2-(4-Chloro-phenyl)-2H-pyrazol-3-yl]-1-pyridin-4-yl-1H-pyridazin-4-one], the IC50 came to 188 nM.

Take `O=c1ccn(-c2ccncc2)nc1-c1ccnn1-c1ccc(F)cc1` [Example 7, 3-[2-(4-Fluoro-phenyl)-2H-pyrazol-3-yl]-1-pyridin-4-yl-1H-pyridazin-4-one]: the IC50 amounted to 183 nM.

On to `NS(=O)(=O)c1ccc(-n2nccc2-c2nn(-c3ccncc3)ccc2=O)cc1` [Example 8, 4-[5-(4-Oxo-1-pyridin-4-yl-1,4-dihydro-pyridazin-3-yl)-pyrazol-1-yl]-benzenesulfonamide], for which the IC50 was found to be 6330 nM.

Regarding `COC(=O)c1cccc(-n2nccc2-c2nn(-c3ccncc3)ccc2=O)c1` [Example 10, 3-[5-(4-Oxo-1-pyridin-4-yl-1,4-dihydro-pyridazin-3-yl)-pyrazol-1-yl]-benzoic acid methyl ester], the IC50 was 48 nM.

As for `Cc1ccc(-n2nccc2-c2nn(-c3ccncc3)ccc2=O)cc1` [Example 11, 1-Pyridin-4-yl-3-(2-p-tolyl-2H-pyrazol-3-yl)-1H-pyridazin-4-one], the IC50 came to 103 nM.

On to `O=c1ccn(-c2ccncc2)nc1-c1ccnn1-c1ccccc1Cl` [Example 12, 3-[2-(2-Chloro-phenyl)-2H-pyrazol-3-yl]-1-pyridin-4-yl-1H-pyridazin-4-one], for which the IC50 is 228 nM.

In the case of `O=c1ccn(-c2ccnc(Cl)c2)nc1-c1ccnn1-c1cccc2ccccc12` [Example 13, 1-(2-Chloro-pyridin-4-yl)-3-(2-naphthalen-1-yl-2H-pyrazol-3-yl)-1H-pyridazin-4-one], the IC50 came out at 11 nM.

For the compound `O=c1ccn(-c2ccncc2)nc1-c1ccnn1-c1ccc2c(c1)OCCO2` [Example 15, 3-[2-(2,3-Dihydro-benzo[1,4]dioxin-6-yl)-2H-pyrazol-3-yl]-1-pyridin-4-yl-1H-pyridazin-4-one], the IC50 was 80 nM.

With `CS(=O)(=O)c1cc(-n2ccc(=O)c(-c3ccnn3-c3cccc4ccccc34)n2)ccn1` [Example 16, 1-(2-Methanesulfonyl-pyridin-4-yl)-3-(2-naphthalen-1-yl-2H-pyrazol-3-yl)-1H-pyridazin-4-one], the IC50 was found to be 15 nM.

`CS(=O)(=O)c1cc(-n2ccc(=O)c(-c3ccnn3-c3ccc4c(c3)OCCO4)n2)ccn1` [Example 17, 3-[2-(2,3-Dihydro-benzo[1,4]dioxin-6-yl)-2H-pyrazol-3-yl]-1-(2-methanesulfonyl-pyridin-4-yl)-1H-pyridazin-4-one]: the IC50 is 96 nM.

As for `O=c1ccn(-c2ccncc2)nc1-c1ccnn1-c1cccc(Cl)c1` [Example 18, 3-[2-(3-Chloro-phenyl)-2H-pyrazol-3-yl]-1-pyridin-4-yl-1H-pyridazin-4-one], the IC50 was found to be 140 nM.

Regarding `Cc1cc(-n2nccc2-c2nn(-c3ccncc3)ccc2=O)ccn1` [Example 19, 3-[2-(2-Methyl-pyridin-4-yl)-2H-pyrazol-3-yl]-1-pyridin-4-yl-1H-pyridazin-4-one], the IC50 is 417 nM.

Turning to `O=c1ccn(-c2ccncc2)nc1-c1ccnn1-c1ccnc2ccccc12` [Example 20, 1-Pyridin-4-yl-3-(2-quinolin-4-yl-2H-pyrazol-3-yl)-1H-pyridazin-4-one], the IC50 stood at 9 nM.

As for `O=c1ccn(-c2ccncc2)nc1-c1ccnn1-c1cccc2cnccc12` [Example 21, 3-(2-Isoquinolin-5-yl-2H-pyrazol-3-yl)-1-pyridin-4-yl-1H-pyridazin-4-one], the IC50 was 28 nM.

As to `O=c1ccn(-c2ccncc2)nc1-c1ccnn1-c1cccc2ncccc12` [Example 22, 1-Pyridin-4-yl-3-(2-quinolin-5-yl-2H-pyrazol-3-yl)-1H-pyridazin-4-one], the IC50 was 35 nM.

`O=c1ccn(-c2ccncc2)nc1-c1ccnn1-c1ccnc(Cl)c1` [Example 23, 3-[2-(2-Chloro-pyridin-4-yl)-2H-pyrazol-3-yl]-1-pyridin-4-yl-1H-pyridazin-4-one]: the IC50 came out at 1210 nM.

As to `O=c1ccn(-c2ccncc2)nc1-c1ccnn1-c1cccc2cccnc12` [Example 26, 1-Pyridin-4-yl-3-(2-quinolin-8-yl-2H-pyrazol-3-yl)-1H-pyridazin-4-one], the IC50 was determined as 806 nM.

In the case of `O=c1ccn(-c2ccncc2)nc1-c1ccnn1-c1cccc2ccncc12` [Example 27, 3-(2-Isoquinolin-8-yl-2H-pyrazol-3-yl)-1-pyridin-4-yl-1H-pyridazin-4-one], the IC50 was found to be 126 nM.

`CN(C)S(=O)(=O)c1cccc(-n2nccc2-c2nn(-c3ccncc3)ccc2=O)c1` [Example 28, N,N-Dimethyl-3-[5-(4-oxo-1-pyridin-4-yl-1,4-dihydro-pyridazin-3-yl)-pyrazol-1-yl]-benzenesulfonamide]: the IC50 was found to be 3230 nM.

As for `O=c1ccn(-c2ccncc2)nc1-c1ccnn1-c1cccc(F)c1F` [Example 29, 3-[2-(2,3-Difluoro-phenyl)-2H-pyrazol-3-yl]-1-pyridin-4-yl-1H-pyridazin-4-one], the half-maximal inhibitory concentration (IC50) was found to be 219 nM.

Take `O=c1ccn(-c2ccncc2)nc1-c1ccnn1-c1ccccc1` [Example 30, 3-(2-Phenyl-2H-pyrazol-3-yl)-1-pyridin-4-yl-1H-pyridazin-4-one]: the IC50 is 69 nM.

Regarding `O=c1ccn(-c2ccncc2)nc1-c1ccnn1-c1ccncc1` [Example 31, 1-Pyridin-4-yl-3-(2-pyridin-4-yl-2H-pyrazol-3-yl)-1H-pyridazin-4-one], the IC50 turned out to be 811 nM.

As for `O=c1ccn(-c2cccnc2)nc1-c1ccnn1-c1ccc2c(c1)OCO2` [Example 32, 3-(2-Benzo[1,3]dioxol-5-yl-2H-pyrazol-3-yl)-1-pyridin-3-yl-1H-pyridazin-4-one], the IC50 was 150 nM.

Take `O=c1ccn(-c2cccnc2)nc1-c1ccnn1-c1ccccn1` [Example 33, 1-Pyridin-3-yl-3-(2-pyridin-2-yl-2H-pyrazol-3-yl)-1H-pyridazin-4-one]: the IC50 came out at 2940 nM.

As to `O=c1ccn(-c2cccnc2)nc1-c1ccnn1-c1ccc2c(c1)OCCO2` [Example 34, 3-[2-(2,3-Dihydro-benzo[1,4]dioxin-6-yl)-2H-pyrazol-3-yl]-1-pyridin-3-yl-1H-pyridazin-4-one], the IC50 stood at 81 nM.

Regarding `O=c1ccn(-c2cccnc2)nc1-c1ccnn1-c1cccc(F)c1` [Example 35, 3-[2-(3-Fluoro-phenyl)-2H-pyrazol-3-yl]-1-pyridin-3-yl-1H-pyridazin-4-one], the IC50 was 285 nM.

`Cc1cncc(-n2ccc(=O)c(-c3ccnn3-c3ccc4c(c3)OCCO4)n2)c1` [Example 36, 3-[2-(2,3-Dihydro-benzo[1,4]dioxin-6-yl)-2H-pyrazol-3-yl]-1-(5-methyl-pyridin-3-yl)-1H-pyridazin-4-one]: the IC50 was determined as 71 nM.
